ChEMBL document CHEMBL2434948, “Discovery, synthesis, and characterization of an orally bioavailable, brain penetrant inhibitor of mixed lineage kinase 3” (J Med Chem, 2013)
Activity calls are given as the source filed them. The calls are words filed in the database; no cut-off is given here.

Columns and labels:
[1] = biological target: T1, Receptor-type tyrosine-protein kinase FLT3 (Homo sapiens, UniProt P36888); assay: cell-based
T1 sequence (P36888 whole entry): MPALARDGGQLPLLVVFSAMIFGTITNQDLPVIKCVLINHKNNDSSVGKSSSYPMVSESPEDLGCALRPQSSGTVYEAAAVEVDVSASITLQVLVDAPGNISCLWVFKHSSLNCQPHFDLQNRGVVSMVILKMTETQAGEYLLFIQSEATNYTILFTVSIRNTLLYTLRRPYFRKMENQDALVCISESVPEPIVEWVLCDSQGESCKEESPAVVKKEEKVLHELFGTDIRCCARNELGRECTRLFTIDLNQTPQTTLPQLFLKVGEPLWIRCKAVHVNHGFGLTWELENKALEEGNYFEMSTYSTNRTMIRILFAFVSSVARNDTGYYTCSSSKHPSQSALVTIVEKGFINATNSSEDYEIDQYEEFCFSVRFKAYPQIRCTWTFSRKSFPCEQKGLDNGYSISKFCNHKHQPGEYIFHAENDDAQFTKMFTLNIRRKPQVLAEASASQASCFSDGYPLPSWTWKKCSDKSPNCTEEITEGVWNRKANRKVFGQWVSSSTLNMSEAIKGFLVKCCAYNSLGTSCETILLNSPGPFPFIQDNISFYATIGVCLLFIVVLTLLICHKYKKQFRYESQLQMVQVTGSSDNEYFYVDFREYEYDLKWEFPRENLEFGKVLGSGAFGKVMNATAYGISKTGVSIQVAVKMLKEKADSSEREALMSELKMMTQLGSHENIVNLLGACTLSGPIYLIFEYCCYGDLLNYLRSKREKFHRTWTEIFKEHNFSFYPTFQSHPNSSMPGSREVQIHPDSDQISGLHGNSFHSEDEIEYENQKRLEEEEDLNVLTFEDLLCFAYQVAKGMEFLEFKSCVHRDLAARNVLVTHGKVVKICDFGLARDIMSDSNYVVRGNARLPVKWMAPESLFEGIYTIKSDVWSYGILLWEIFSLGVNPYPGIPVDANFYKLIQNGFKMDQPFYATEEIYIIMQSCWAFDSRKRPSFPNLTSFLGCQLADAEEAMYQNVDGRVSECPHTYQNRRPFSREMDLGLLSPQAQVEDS
Description: Inhibition of FLT3-L-stimulated wild type full length human FLT3 autophosphorylation expressed in MEF preincubated for 90 mins followed by FLT3-L stimulation measured after 5 mins by ELISA

[2] = biological target: Maternal embryonic leucine zipper kinase (Homo sapiens) (UniProt Q14680); assay: Inhibition of human wild type MELK at 1 uM by qPCR analysis relative to control
[3] = biological target: Mitogen-activated protein kinase 1 (Homo sapiens, UniProt P28482); assay: Inhibition of human wild type ERK2 at 1 uM by qPCR analysis
[4] = biological target: NUAK family SNF1-like kinase 1 (Homo sapiens) (UniProt O60285); assay: Inhibition of human wild type ARK5 at 1 uM by qPCR analysis relative to control
[5] = biological target: Receptor-type tyrosine-protein kinase FLT3 (Homo sapiens) (UniProt P36888); assay: Inhibition of human wild type FLT3 at 1 uM by qPCR analysis relative to control
Cytochrome P450 2C9 = Cytochrome P450 2C9 (Homo sapiens, UniProt P11712)
Description: Inhibition of CYP2C9 in human liver microsomes assessed as inhibition of midazolam metabolism by HPLC/MS analysis

in vivo = details: C57BL/6, mouse, po, 10 mg/kg
[6] = biological target: Mast/stem cell growth factor receptor Kit (Homo sapiens) (UniProt P10721); assay: Inhibition of human wild type KIT at 1 uM by qPCR analysis relative to control
[7] = biological target: RAC-alpha serine/threonine-protein kinase (Homo sapiens) (UniProt P31749); assay: Inhibition of human wild type AKT1 at 1 uM by qPCR analysis
[8] = biological target: T2, Mitogen-activated protein kinase kinase kinase 11 (Homo sapiens, UniProt Q16584)
Description: Inhibition of MLK3 (unknown origin) after 20 mins by scintillation counting analysis in presence of [33P]-ATP

[9] = biological target: Cyclin-dependent kinase-like 2 (Homo sapiens) (UniProt Q92772); assay: Inhibition of human wild type CDKL2 at 1 uM by qPCR analysis relative to control
[10] = biological target: T2, Mitogen-activated protein kinase kinase kinase 11; details: 300 nM
[11] = biological target: T1, Receptor-type tyrosine-protein kinase FLT3
Description: Inhibition of wild type human FLT3 by high throughput ATP-[33P] radiolabeled assay

[12] = biological target: Inhibitor of nuclear factor kappa-B kinase subunit beta (Homo sapiens) (UniProt O14920); assay: Inhibition of human wild type IKKbeta at 1 uM by qPCR analysis relative to control
[13] = biological target: Serine/threonine-protein kinase MARK1 (Homo sapiens) (UniProt Q9P0L2); assay: Inhibition of human wild type MARK1 at 1 uM by qPCR analysis relative to control
[14] = biological target: Cyclin-dependent kinase 4 (Homo sapiens) (UniProt P11802); assay: Inhibition of human wild type CDK4 at 1 uM by qPCR analysis relative to control
[15] = biological target: Mitogen-activated protein kinase 3 (Homo sapiens) (UniProt P27361); assay: Inhibition of human wild type ERK1 at 1 uM by qPCR analysis
Brain = assay: Drug uptake in C57BL/6 mouse brain at 10 mg/kg, iv measured over 6 hrs; assay type: ADME, organism-based; design: dose 10 mg/kg, route intravenous; details: in vivo
[16] = biological target: Mitogen-activated protein kinase 8 (Homo sapiens, UniProt P45983)
Description: Inhibition of wild type human wild type JNK1 by qPCR analysis

[17] = biological target: Mitogen-activated protein kinase kinase kinase 10 (Homo sapiens, UniProt Q02779)
Description: Inhibition of MLK2 (unknown origin)

[18] = biological target: Mitogen-activated protein kinase 13 (Homo sapiens) (UniProt O15264); assay: Inhibition of human wild type p38d at 1 uM by qPCR analysis
[19] = biological target: Dual specificity protein kinase CLK1 (Homo sapiens) (UniProt P49759); assay: Inhibition of human wild type CLK1 at 1 uM by qPCR analysis relative to control
[20] = biological target: Rho-associated protein kinase 2 (Homo sapiens, UniProt O75116)
Description: Inhibition of wild type human ROCK2 by high throughput ATP-[33P] radiolabeled assay

[21] = biological target: Hepatocyte growth factor receptor (Homo sapiens, UniProt P08581)
Description: Inhibition of wild type human c-MET by high throughput ATP-[33P] radiolabeled assay

[22] = biological target: Tyrosine-protein kinase receptor UFO (Homo sapiens) (UniProt P30530); assay: Inhibition of human wild type AXL at 1 uM by qPCR analysis relative to control
[23] = biological target: Leucine-rich repeat serine/threonine-protein kinase 2 (Homo sapiens, UniProt Q5S007)
Description: Inhibition of human wild type LRRK2 by qPCR analysis

[24] = biological target: Mitogen-activated protein kinase kinase kinase kinase 4 (Homo sapiens) (UniProt O95819); assay: Binding affinity to human wild type MAP4K4 at 1 uM by qPCR analysis
[25] = biological target: Cyclin-dependent kinase 11B (Homo sapiens) (UniProt P21127); assay: Inhibition of human wild type CDK11 at 1 uM by qPCR analysis relative to control
[26] = biological target: Inhibitor of nuclear factor kappa-B kinase subunit alpha (Homo sapiens) (UniProt O15111); assay: Inhibition of human wild type IKKalpha at 1 uM by qPCR analysis relative to control

Chain of Mitogen-activated protein kinase 8 (P45983 whole entry): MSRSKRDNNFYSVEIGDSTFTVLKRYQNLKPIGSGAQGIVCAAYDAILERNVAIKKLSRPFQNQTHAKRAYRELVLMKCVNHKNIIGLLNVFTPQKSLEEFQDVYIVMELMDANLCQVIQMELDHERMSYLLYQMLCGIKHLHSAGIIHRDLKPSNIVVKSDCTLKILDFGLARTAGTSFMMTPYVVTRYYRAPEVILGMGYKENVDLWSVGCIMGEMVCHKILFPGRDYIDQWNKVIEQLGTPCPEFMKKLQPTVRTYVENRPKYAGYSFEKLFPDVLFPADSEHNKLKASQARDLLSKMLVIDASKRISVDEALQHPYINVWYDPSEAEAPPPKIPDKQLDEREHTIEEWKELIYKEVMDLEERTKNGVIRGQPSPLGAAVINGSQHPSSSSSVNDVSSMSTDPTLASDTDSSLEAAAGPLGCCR
Chain of Mitogen-activated protein kinase 13 (Homo sapiens) (O15264 whole entry): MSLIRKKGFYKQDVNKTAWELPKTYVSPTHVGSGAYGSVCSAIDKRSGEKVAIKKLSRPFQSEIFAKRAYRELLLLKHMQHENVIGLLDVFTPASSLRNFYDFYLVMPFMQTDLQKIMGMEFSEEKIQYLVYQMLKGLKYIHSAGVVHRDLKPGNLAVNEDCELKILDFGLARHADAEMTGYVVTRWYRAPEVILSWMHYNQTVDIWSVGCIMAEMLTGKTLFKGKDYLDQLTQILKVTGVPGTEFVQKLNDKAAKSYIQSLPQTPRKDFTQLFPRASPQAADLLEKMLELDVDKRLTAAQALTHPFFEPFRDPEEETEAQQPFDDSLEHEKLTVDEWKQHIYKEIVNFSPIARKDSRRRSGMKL
Chain of RAC-alpha serine/threonine-protein kinase (Homo sapiens) (P31749 whole entry): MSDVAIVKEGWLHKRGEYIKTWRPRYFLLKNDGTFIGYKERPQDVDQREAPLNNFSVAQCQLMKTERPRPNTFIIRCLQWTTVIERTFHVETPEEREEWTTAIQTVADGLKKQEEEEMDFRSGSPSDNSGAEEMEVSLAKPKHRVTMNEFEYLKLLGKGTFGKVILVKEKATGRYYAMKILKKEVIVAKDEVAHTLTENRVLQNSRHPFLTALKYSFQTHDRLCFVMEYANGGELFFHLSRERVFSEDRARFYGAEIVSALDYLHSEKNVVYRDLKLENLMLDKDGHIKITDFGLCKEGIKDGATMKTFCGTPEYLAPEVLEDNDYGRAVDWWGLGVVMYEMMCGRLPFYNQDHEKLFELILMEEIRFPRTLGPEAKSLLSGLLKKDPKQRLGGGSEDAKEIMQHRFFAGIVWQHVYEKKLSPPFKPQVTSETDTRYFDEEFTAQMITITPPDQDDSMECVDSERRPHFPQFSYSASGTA
Chain of Mitogen-activated protein kinase kinase kinase kinase 4 (Homo sapiens) (O95819 2-1239 limits assumed): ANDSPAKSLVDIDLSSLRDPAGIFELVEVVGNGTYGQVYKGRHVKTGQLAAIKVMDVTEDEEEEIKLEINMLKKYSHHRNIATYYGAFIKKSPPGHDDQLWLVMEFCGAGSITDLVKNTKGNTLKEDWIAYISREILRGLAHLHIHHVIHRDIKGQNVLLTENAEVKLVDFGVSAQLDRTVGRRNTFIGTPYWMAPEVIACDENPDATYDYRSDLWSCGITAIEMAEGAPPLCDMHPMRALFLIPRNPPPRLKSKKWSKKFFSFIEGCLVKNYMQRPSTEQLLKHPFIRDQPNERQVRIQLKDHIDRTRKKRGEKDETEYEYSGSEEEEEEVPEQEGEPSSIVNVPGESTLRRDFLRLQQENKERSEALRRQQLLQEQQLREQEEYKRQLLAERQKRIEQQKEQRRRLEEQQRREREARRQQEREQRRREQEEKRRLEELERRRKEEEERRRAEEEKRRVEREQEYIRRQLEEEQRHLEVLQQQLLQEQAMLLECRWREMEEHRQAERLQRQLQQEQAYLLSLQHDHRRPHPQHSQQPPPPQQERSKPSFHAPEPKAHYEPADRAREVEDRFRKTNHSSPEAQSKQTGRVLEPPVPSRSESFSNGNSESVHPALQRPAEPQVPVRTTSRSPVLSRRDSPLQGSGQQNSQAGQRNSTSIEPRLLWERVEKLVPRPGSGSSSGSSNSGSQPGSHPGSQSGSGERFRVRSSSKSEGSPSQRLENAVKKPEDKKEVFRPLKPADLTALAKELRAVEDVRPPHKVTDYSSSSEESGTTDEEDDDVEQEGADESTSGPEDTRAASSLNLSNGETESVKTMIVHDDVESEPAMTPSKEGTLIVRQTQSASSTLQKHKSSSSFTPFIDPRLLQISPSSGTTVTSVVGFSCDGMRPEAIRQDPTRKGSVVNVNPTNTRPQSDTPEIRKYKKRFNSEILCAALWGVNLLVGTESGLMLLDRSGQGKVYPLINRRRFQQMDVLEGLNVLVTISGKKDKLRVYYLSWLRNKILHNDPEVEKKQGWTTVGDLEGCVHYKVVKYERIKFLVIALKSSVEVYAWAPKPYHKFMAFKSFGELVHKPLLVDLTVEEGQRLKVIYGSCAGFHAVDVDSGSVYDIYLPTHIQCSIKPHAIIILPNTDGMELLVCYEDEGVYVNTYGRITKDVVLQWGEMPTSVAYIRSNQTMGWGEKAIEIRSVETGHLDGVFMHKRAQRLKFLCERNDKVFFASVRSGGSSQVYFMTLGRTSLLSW
Chain of Leucine-rich repeat serine/threonine-protein kinase 2 (Q5S007 whole entry): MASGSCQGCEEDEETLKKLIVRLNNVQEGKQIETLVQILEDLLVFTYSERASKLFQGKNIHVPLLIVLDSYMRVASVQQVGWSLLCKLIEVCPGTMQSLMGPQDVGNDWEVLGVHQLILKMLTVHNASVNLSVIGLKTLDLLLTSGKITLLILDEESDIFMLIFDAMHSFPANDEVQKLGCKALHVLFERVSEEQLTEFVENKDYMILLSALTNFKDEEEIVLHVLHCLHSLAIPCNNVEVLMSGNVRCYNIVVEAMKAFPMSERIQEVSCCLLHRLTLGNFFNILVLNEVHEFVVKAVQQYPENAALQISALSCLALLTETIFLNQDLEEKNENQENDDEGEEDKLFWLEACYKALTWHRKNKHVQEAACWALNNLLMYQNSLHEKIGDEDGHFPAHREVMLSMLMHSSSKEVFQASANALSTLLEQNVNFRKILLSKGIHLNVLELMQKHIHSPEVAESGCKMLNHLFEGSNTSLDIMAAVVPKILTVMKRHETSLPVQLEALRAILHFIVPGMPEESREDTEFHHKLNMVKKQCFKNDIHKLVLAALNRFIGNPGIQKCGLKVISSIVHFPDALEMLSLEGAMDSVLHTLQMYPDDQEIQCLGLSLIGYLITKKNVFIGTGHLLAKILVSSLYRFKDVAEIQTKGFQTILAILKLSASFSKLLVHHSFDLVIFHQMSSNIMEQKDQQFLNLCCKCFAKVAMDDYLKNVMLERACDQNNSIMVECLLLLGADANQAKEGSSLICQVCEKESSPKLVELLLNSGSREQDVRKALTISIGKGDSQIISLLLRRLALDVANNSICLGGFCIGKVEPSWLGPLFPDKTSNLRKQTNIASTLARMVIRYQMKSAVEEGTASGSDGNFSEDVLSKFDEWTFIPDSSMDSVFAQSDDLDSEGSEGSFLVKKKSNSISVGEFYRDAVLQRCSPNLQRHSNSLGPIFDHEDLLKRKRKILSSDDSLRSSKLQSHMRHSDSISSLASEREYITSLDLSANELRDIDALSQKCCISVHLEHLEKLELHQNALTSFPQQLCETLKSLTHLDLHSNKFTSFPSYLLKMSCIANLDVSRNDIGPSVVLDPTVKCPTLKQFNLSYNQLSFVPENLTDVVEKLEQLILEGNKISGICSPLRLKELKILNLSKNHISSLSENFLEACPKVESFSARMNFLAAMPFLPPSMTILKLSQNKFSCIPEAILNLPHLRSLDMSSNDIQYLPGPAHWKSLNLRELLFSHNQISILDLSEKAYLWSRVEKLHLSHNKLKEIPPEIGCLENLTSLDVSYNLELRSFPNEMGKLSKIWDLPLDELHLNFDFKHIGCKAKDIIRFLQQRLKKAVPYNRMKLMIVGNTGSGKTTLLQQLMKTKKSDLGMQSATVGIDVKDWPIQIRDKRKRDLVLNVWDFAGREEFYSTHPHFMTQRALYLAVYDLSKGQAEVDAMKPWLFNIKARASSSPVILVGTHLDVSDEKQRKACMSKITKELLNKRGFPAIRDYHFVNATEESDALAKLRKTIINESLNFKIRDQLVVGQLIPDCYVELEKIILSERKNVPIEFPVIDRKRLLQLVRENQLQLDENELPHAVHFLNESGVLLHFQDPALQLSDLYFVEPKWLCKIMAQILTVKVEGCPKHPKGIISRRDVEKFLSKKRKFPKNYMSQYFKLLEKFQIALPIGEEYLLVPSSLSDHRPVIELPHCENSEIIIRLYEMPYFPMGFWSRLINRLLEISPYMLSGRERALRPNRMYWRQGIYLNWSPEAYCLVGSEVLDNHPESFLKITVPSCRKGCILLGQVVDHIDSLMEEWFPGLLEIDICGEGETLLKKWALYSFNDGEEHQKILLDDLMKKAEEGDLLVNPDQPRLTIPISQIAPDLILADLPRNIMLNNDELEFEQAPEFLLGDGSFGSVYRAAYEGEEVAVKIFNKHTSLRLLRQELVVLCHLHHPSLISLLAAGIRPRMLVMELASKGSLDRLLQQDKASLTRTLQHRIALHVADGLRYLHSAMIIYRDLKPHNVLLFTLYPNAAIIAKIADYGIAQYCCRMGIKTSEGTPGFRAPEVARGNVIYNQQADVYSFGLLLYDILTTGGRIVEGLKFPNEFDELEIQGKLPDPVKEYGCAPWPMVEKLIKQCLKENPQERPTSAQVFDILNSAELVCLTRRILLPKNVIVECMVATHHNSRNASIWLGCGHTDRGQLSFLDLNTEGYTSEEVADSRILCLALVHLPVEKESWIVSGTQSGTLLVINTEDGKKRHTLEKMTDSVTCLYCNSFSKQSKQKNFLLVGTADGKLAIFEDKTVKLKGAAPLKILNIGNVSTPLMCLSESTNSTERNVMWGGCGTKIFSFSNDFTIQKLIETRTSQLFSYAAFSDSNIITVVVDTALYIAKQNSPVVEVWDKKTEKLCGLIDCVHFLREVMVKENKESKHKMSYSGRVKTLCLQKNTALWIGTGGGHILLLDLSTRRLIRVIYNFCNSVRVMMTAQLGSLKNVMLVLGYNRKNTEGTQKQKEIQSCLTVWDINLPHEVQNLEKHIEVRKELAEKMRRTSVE

In the case of `CN1CCN(Cc2ccc(-c3cnc4[nH]cc(-c5ccc6[nH]ccc6c5)c4c3)cc2)CC1`, the IC50 [1] is reported as 560 nM, the inhibition [2] is reported as > 90% and the inhibition [3] is reported as “inactive”. For the same molecule, the inhibition [4] was > 90%, the inhibition [5] was > 90% and the IC50 (Cytochrome P450 2C9) was > 30000 nM. For the same molecule, the Tmax (in vivo) was 4 h, the inhibition [6] was > 90% and the inhibition [7] was “inactive”. The IC50 [8] was 14 nM, the inhibition [9] was > 90% and the inhibition [10] was > 50%. For the same molecule, the IC50 [11] was 4 nM, the inhibition [12] was > 90% and the inhibition [13] was 92%. For the same molecule, the inhibition [14] was > 90%, the inhibition [15] was “inactive” and the Drug uptake (Brain) was “Active”. For the same molecule, the IC50 [16] was 3280 nM, the IC50 [17] was 42 nM and the inhibition [18] was “inactive”. For the same molecule, the inhibition [19] was > 90%, the IC50 [20] was 111 nM and the IC50 [21] was 177 nM. The inhibition [22] was > 90%, the IC50 [23] was 11 nM and the inhibition [24] was “Active”. For the same molecule, the inhibition [25] was > 90% and the inhibition [26] was > 90%.
